Assay results published in patent publication US6914045B2, “Glycopeptide antibiotics” (Wyeth Holdings Corporation, priority 2001, dated 2005).
Converted amounts (≈) assume the structure as drawn.

How the values were obtained:
Assay in all cases: in vitro antibacterial evaluation, MIC by broth dilution
Format in all cases: cell-based
Enterococcus sp. = details: broth dilution, 18 hours at 35° C.
Summary of the method: (§1)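 Following National Committee for Clinical Laboratory Standards recommendations (M7-A2), susceptibility was measured by dilution in Muller-Hinton II […]. Bacteria were seeded at 5×10^5 CFU/mL against compound concentrations from 64 down to 0.06 μg/mL.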

Staphylococcus sp. = details: broth dilution, 18 hours at 35° C.; for MIC Staphylococcus aureus (GC 1131): strain GC 1131
Summary of the method: as §1

Streptococcus sp. = details: broth dilution, 18 hours at 35° C.
Summary of the method: as §1

Escherichia coli = details: 18 hours at 35° C.

- MIC Enterococcus avium (GC 4558) (Enterococcus sp.): 2 mg/L (≈ 1.42 µM)
- MIC Enterococcus faecalis (ATCC 29212) (Enterococcus sp.): 2 mg/L (≈ 1.42 µM)
- MIC Enterococcus faecalis (GC 2242) (Enterococcus sp.): 1 mg/L (≈ 0.708 µM)
- MIC Enterococcus faecalis (GC 2691) (Enterococcus sp.): 2 mg/L (≈ 1.42 µM)
- MIC Enterococcus faecalis (GC 3059) (Enterococcus sp.): 1 mg/L (≈ 0.708 µM)
- MIC Enterococcus faecalis (GC 4552) (Enterococcus sp.): 1 mg/L (≈ 0.708 µM)
- MIC Enterococcus faecalis (GC 4553) (Enterococcus sp.): 2 mg/L (≈ 1.42 µM)
- MIC Enterococcus faecalis (GC 4554) (Enterococcus sp.): 1 mg/L (≈ 0.708 µM)
- MIC Enterococcus faecalis (GC 6189) (Enterococcus sp.): 0.5 mg/L (≈ 0.354 µM)
- MIC Enterococcus faecium (GC 2243) (Enterococcus sp.): 1 mg/L (≈ 0.708 µM)
- MIC Enterococcus faecium (GC 4556) (Enterococcus sp.): 1 mg/L (≈ 0.708 µM)
- MIC Enterococcus faecium (GC 4557) (Enterococcus sp.): 2 mg/L (≈ 1.42 µM)
- MIC Enterococcus faecalis (ATCC 29212) (Enterococcus sp.; inoculum 5×10^5 CFU/mL, strain ATCC 29212): 2 mg/L (≈ 1.42 µM)
- MIC Enterococcus faecalis (GC 2242) (Enterococcus sp.; inoculum 5×10^5 CFU/mL, strain GC 2242): 1 mg/L (≈ 0.708 µM)
- MIC Enterococcus faecium (GC 2243) (Enterococcus sp.; inoculum 5×10^5 CFU/mL, strain GC 2243): 1 mg/L (≈ 0.708 µM)
- MIC Enterococcus faecalis (GC 2691) (Enterococcus sp.; inoculum 5×10^5 CFU/mL, strain GC 2691): 2 mg/L (≈ 1.42 µM)
- MIC Enterococcus faecalis (GC 3059) (Enterococcus sp.; inoculum 5×10^5 CFU/mL, strain GC 3059): 1 mg/L (≈ 0.708 µM)
- MIC Enterococcus faecalis (GC 4552) (Enterococcus sp.; inoculum 5×10^5 CFU/mL, strain GC 4552): 1 mg/L (≈ 0.708 µM)
- MIC Enterococcus faecalis (GC 4553) (Enterococcus sp.; inoculum 5×10^5 CFU/mL, strain GC 4553): 2 mg/L (≈ 1.42 µM)
- MIC Enterococcus faecalis (GC 4554) (Enterococcus sp.; inoculum 5×10^5 CFU/mL, strain GC 4554): 1 mg/L (≈ 0.708 µM)
- MIC Enterococcus faecium (GC 4556) (Enterococcus sp.; inoculum 5×10^5 CFU/mL, strain GC 4556): 1 mg/L (≈ 0.708 µM)
- MIC Enterococcus faecium (GC 4557) (Enterococcus sp.; inoculum 5×10^5 CFU/mL, strain GC 4557): 2 mg/L (≈ 1.42 µM)
- MIC Enterococcus avium (GC 4558) (Enterococcus sp.; inoculum 5×10^5 CFU/mL, strain GC 4558): 2 mg/L (≈ 1.42 µM)
- MIC Enterococcus faecalis (GC 6189) (Enterococcus sp.; inoculum 5×10^5 CFU/mL, strain GC 6189): 0.5 mg/L (≈ 0.354 µM)
- MIC Staphylococcus aureus (GC 1131) (Staphylococcus sp.; inoculum 5×10^5 CFU/mL): 1 mg/L (≈ 0.708 µM)
- MIC Staphylococcus aureus (ATCC 29213) (Staphylococcus sp.; strain ATCC 29213): 0.5 mg/L (≈ 0.354 µM)
- MIC Staphylococcus aureus (GC 1131) (Staphylococcus sp.): 1 mg/L (≈ 0.708 µM)
- MIC Staphylococcus aureus (GC 3051) (Staphylococcus sp.; strain GC 3051): 1 mg/L (≈ 0.708 µM)
- MIC Staphylococcus aureus (GC 3053) (Staphylococcus sp.; strain GC 3053): 1 mg/L (≈ 0.708 µM)
- MIC Staphylococcus aureus (GC 4541) (Staphylococcus sp.; strain GC 4541): 0.5 mg/L (≈ 0.354 µM)
- MIC Staphylococcus aureus (GC 4542) (Staphylococcus sp.; strain GC 4542): 0.5 mg/L (≈ 0.354 µM)
- MIC Staphylococcus aureus-SMITH (GC 4543) (Staphylococcus sp.; strain GC 4543): 0.5 mg/L (≈ 0.354 µM)
- MIC Staphylococcus aureus (GC 4544) (Staphylococcus sp.; strain GC 4544): 2 mg/L (≈ 1.42 µM)
- MIC Staphylococcus aureus (GC 4545) (Staphylococcus sp.; strain GC 4545): 1 mg/L (≈ 0.708 µM)
- MIC Coagulase Negative Staphylococcus (GC 4547) (Staphylococcus sp.; strain GC 4547): 1 mg/L (≈ 0.708 µM)
- MIC Coagulase Negative Staphylococcus (GC 4548) (Staphylococcus sp.; strain GC 4548): 0.5 mg/L (≈ 0.354 µM)
- MIC Coagulase Negative Staphylococcus (GC 4549) (Staphylococcus sp.; strain GC 4549): 0.5 mg/L (≈ 0.354 µM)
- MIC Coagulase Negative Staphylococcus (GC 4551) (Staphylococcus sp.; strain GC 4551): 1 mg/L (≈ 0.708 µM)
- MIC Coagulase Negative Staphylococcus (GC 6257) (Staphylococcus sp.; strain GC 6257): 0.5 mg/L (≈ 0.354 µM)
- MIC Streptococcus agalactiae (GC 4564) (Streptococcus sp.): <0.06 mg/L
- MIC Streptococcus pneumoniae (ATCC 6301) (Streptococcus sp.): 0.25 mg/L (≈ 0.177 µM)
- MIC Streptococcus pneumoniae (GC 1894) (Streptococcus sp.): 0.12 mg/L (≈ 0.085 µM)
- MIC Streptococcus pneumoniae (GC 4565) (Streptococcus sp.): <0.06 mg/L
- MIC Streptococcus pyogenes (GC 4563) (Streptococcus sp.): <0.06 mg/L
- MIC Streptococcus pneumoniae (ATCC 6301) (Streptococcus sp.; inoculum 5×10^5 CFU/mL, strain ATCC 6301): 0.25 mg/L (≈ 0.177 µM)
- MIC Streptococcus pneumoniae (GC 1894) (Streptococcus sp.; inoculum 5×10^5 CFU/mL, strain GC 1894): 0.12 mg/L (≈ 0.085 µM)
- MIC Streptococcus pyogenes (GC 4563) (Streptococcus sp.; inoculum 5×10^5 CFU/mL, strain GC 4563): <0.06 mg/L
- MIC Streptococcus agalactiae (GC 4564) (Streptococcus sp.; inoculum 5×10^5 CFU/mL, strain GC 4564): <0.06 mg/L
- MIC Streptococcus pneumoniae (GC 4565) (Streptococcus sp.; inoculum 5×10^5 CFU/mL, strain GC 4565): <0.06 mg/L
- MIC Escherichia coli (GC 4559) (Escherichia coli): 32 mg/L (≈ 22.7 µM)
- MIC Escherichia coli (GC 4560) (Escherichia coli): 2 mg/L (≈ 1.42 µM)
SMILES: CCCC(C)C1OCC2OC(OC3C(CO)OC(Oc4ccc(CC5NC(=O)C(C(C)c6ccc(Cl)cc6)NC(=O)CNC(=O)C(CO)NC(=O)C(C(O)C6CNC(=N)N6C6OC(CO)C(O)C(O)C6O)NC(=O)C(C(O)C6CNC(=N)N6)NC5=O)cc4)C(O)C3O)C(O)C(O)C2O1 (stereo not shown) [Example 194]
- MIC Staphylococcus haemolyticus (GC 4546) (Staphylococcus sp.; strain GC 4546): 0.5 mg/L (≈ 0.354 µM)
